Measurements from article PMC8510344, “Bile-Acid-Appended Triazolyl Aryl Ketones: Design, Synthesis, In Vitro Anticancer Activity and Pharmacokinetics in Rats” (Molecules, 2021).
Values joined by “and” are separate entries in the source; they are usually repeats but may differ in a detail not shown here. Equal values may be shown once. Read-outs that look alike come from different tables or passages of the source.

What was measured:
[1] = tested on: 4T1 cells; experiment: Annexin V/PI apoptosis assay by flow cytometry, 4T1; type: cell-based, mouse; details: 6af at 12.84 µM, 6cf at 8.76 µM (respective IC50), 48 h
Protocol: (§1) The extent of apoptosis induced by compounds 6af and 6cf in MCF-7 and 4T1 cells was quantified by flow cytometry according to the manufacturer’s protocol. Briefly, cells were seeded in a 6-well plate at a cell density of 1 × 10^6 cells/well. After 24 h, the media was discarded and cells were treated with fresh media containing compounds 6af and 6cf at their respective IC50 concentrations for 48 h. After treatment, cells were trypsinized, harvested in PBS and collected by centrifugation for 5 min at 2000 rpm. Cells were then resuspended in 1X binding buffer and stained with FITC-labeled Annexin V Alexa Fluor 488 (5 μL) and propidium iodide (10 μL). Cells were analyzed using flow cytometer (Beckman Coulter), and data were analyzed with CytExpert software.

[2] = tested on: MCF-7 (human breast adenocarcinoma) cells; experiment: MTT cytotoxicity assay, MCF-7; type: cell-based; details: Homo sapiens, MCF7, 10 µM, 48 h exposure, read-out: % Cell Viability at 10 µM MCF-7
Protocol: (§2) The cytotoxicity activity of all the conjugates (6aa–6df) was evaluated in vitro by MTT assay against two different breast cancer cell lines 4T1 (murine) and MCF-7 (human) and HEK 293 (human) as normal cell line. DTX was used as positive control. Cells were grown in DMEM supplemented with 10% FBS and 1% antibiotic solution and incubated at 5% CO2 and 37 °C for 24 h. The stock solutions of all the conjugates were prepared in DMSO and diluted for further use. Briefly, 5 × 10^3 cells/well were seeded in 96-well cell culture plates and allowed to adhere for 24 h. Cell inhibition (%) was determined after 48 h exposure to the compounds at 1–25 μM concentration. After 48 h, MTT assay was performed and the yellow tetrazolium salt (MTT) was reduced in metabolically active cells to form insoluble purple formazan crystals, which were solubilized by the addition of DMSO. The optical density (OD) was recorded at 560 nm and 630 nm as reference wavelength. Percentage cell inhibition was determined by comparison with untreated cells.

[3] = Pharmacokinetic study in Wistar rats, i.v. bolus; type: in vivo; details: rat plasma, 10 mg/kg i.v. bolus
Protocol: Wistar rats (male; 8–10 weeks, 200–240 g) were procured from Central Animal Facility, BITS Pilani (Pilani, India). Animal experiment protocol was approved by Institutional Animal Ethics Committee (IAEC/RES/24/03), BITS Pilani, Pilani, and all experiments were conducted as per CPCSEA guidelines. Rats were housed in well-ventilated cages at standard laboratory conditions with regular light/dark cycles for 12 h and fed with standard normal diet ab libitum.
The pharmacokinetic study of 6cf was performed on Wistar rats. 6cf solution (prepared in normal saline with 5% w/v tween 80) was administered intravenously at the dose of 10 mg/kg with maximum dosing volume of 300 µL to each rat without fasting (n = 4). After i.v. dosing, blood samples were collected for each preset time point at 10, 20, 30, 50 min, 1.5, 2, 4, 6, 8, 12 and 24 h. 6cf plasma concentration–time profile was plotted and analyzed by non-compartmental model approach using Phoenix 2.1 WinNonlin (Pharsight Corporation, USA) to determine t1/2, elimination half-life; C0, drug concentration in plasma at t = 0; AUC0-t, area under curve from zero to the last time point; AUC0–∞, area under curve from zero to infinity; and MRT, mean residence time.
A simple liquid–liquid extraction (LLE) method was used for extraction of 6cf from the rat plasma. A 200 µL aliquot of plasma sample containing 6cf was taken in 5 mL glass tube, followed by the addition of 100 µL of internal standard (I.S.) (clobetasol, 2 µg/mL) solution. Samples were vortexed for 1 min, and then 2 mL of ethyl acetate was added as extracting solvent. The samples were vortexed for 5 min and centrifuged at 5000 rpm for 15 min at 4 °C. The organic layer was collected and evaporated to dryness at 40 ± 0.5 °C. The residue was reconstituted with 250 µL of mobile phase and vortexed for 1 min. Finally, 150 µL of sample was injected into HPLC for quantification.
A Thermo Fisher Rapid Separation (RS) UHPLC System (Ultimate 3000) equipped with a pump (LPG-3400SD), Diode Array Detector (DAD) (DAD-3000) and autosampler (ACC-3000T) with 250 µL injection loop was used for purity analysis. The UHPLC system was equilibrated for approximately 40 min before beginning the sample analysis. Column temperature was 35° throughout the analysis. 6cf and I.S. were separated on Intersil® ODS (C18) column (250 × 4.6 mm, 5µm) with a mobile phase consisting of acetonitrile:water (60:40 % v/v) run in isocratic mode at a flow rate of 1 mL/min, detection wavelength 259 nm and injection volume of 150 µL. […] Control of hardware and data handling was performed using Chromeleon software version 7.2 SR4.

[4] = MTT cytotoxicity assay, normal cell line HEK 293; type: cell-based; details: human, HEK 293 cells, HEK 293 normal cells, 48 h exposure
Protocol: as §2

[5] = tested on: MCF-7 cells; experiment: Annexin V/PI apoptosis assay by flow cytometry, MCF-7; type: cell-based, human; details: 6af at 2.61 µM, 6cf at 5.71 µM (respective IC50), 48 h
Protocol: as §1

[6] = tested on: 4T1 (mouse mammary carcinoma) cells; experiment: MTT cytotoxicity assay, 4T1; type: cell-based; details: Mus musculus, 10 µM, 48 h exposure, read-out: % Cell Viability at 10 µM 4T1
Protocol: as §2

[7] = tested on: Human prostate cancer cell line (PC-3); set-up: method as in PMID 23884119, PMID 25476168, PMID 30220830, PMID 23584541, PMID 28158265; details: literature example of Figure 1; cited from earlier work
[8] = tested on: leukemia cell line (Jurkat); set-up: method as in doi:10.1039/c3nj00513e; details: cited from earlier work
[9] = tested on: leukemia cell line (K562); details: cited from earlier work
[10] = tested on: Lymphoblastic leukemia cell line (CCRF-CEM); set-up: method as in PMID 23291595; details: cited from earlier work

## C[C@H](CCC(=O)NCc1cn(CC(=O)c2ccc(Br)cc2)nn1)C1CCC2C3C(C[C@H](O)[C@@]21C)[C@@]1(C)CC[C@@H](O)CC1C[C@H]3O (stereo partly drawn) [6cf, (4R)-N-((1-(2-(4-Bromophenyl)-2-oxoethyl)-1H-1,2,3-triazol-4-yl)methyl)-4-((3R,7R,10S,12S,13R)-3,7,12-trihydroxy-10,13-dimethylhexadecahydro-1H-cyclopenta[a]phenanthren-17-yl)pentanamide]
[1]
  total apoptosis in 4T1 cells: 19.56%
[2]
  viability at 10 µM: 37.5%
[3]; male, Wistar, iv, conversion of 1752.69 ng/mL, read-out: initial concentration converted to molar
  C0: ~2560 nM
[3]; male, Wistar, iv, mean ± SEM, read-out: Area Under the Curve (0 to 12 h), AUC0–last
  AUC(0-t): 2000 ± 87.4 ng·h/mL
[3]; male, Wistar, iv, mean ± SEM, read-out: Area Under the Curve (0 to infinity), AUC0–∞
  AUC(0-inf): 2690 ± 113 ng·h/mL
[3]; male, Wistar, iv, mean ± SEM, read-out: Elimination Rate Constant, Ke (converted)
  k el: 3.61e-05 s⁻¹
[3]; male, Wistar, iv, mean ± SEM, read-out: Half-Life, t1/2 (converted)
  half-life: 5.63 ± 0.539 h
[3]; male, Wistar, iv, mean ± SEM, read-out: Initial Concentration, C0
  C0: 1750 ± 66.5 ng/mL
[3]; male, Wistar, iv, mean ± SEM, read-out: Mean Residence Time, MRT
  MRT: 8.47 ± 0.96 h
[3]; mean ± SEM
  Area Under the First Moment Curve (0 to 12 h), AUMC0–last: 8155.94 ± 311.78 ng·h/mL
  Area Under the First Moment Curve (0 to infinity), AUMC0–∞: 22276.39 ± 2023.334 ng·h/mL
other
  melting point: 144 to 145 °C
[4]
  viability at 48 h, 10 µM: > 86%
[5]
  apoptosis (total) in MCF-7 cells: 46.09%
[6]
  viability at 10 µM: 49.3%

## CC(=O)c1ccc(OCc2cn(CC(=O)C3CCC4C5CC=C6CC(O)CCC6(C)C5CCC34C)nn2)cc1 (centres unmarked) [I]
[7]
  IC50: 0.03 µM

## COC(=O)CCC(C)C1CCC2C3C(O)CC4CC(n5cc(CCCC#Cc6nc7c(N)ncnc7n6C6CC(O)C(CO)O6)nn5)CCC4(C)C3CCC12C (centres unmarked) [VII]
[8]
  IC50: 10.5 ± 2.64 µM
[9]
  IC50: 8.51 µM and 8.5 µM

## CC(CCn1cc(CCCCC#Cc2nc3c(N)ncnc3n2C2CC(O)C(CO)O2)nn1)C1CCC2C3C(O)CC4CC(O)CCC4(C)C3CCC12C (centres unmarked) [VI]
[9]
  IC50: 16.2 ± 2.2 µM

## CC(CCC(=O)OCc1cn(Cc2cccc(Cn3cc(COC(=O)CCC(C)C4CCC5C6C(O)CC7CC(O)CCC7(C)C6CC(O)C45C)nn3)n2)nn1)C1CCC2C3C(O)CC4CC(O)CCC4(C)C3CC(O)C12C (centres unmarked) [V]
[10]
  IC50: 3.98 µM
